Reference: patent publication EP2366431A1, “Myeloperoxidase as a target in atrial fibrillation” (Universitätsklinikum Hamburg-Eppendorf, priority 2010, dated 2011)

Key:
[1] = system: Langendorff perfused hearts from WT and Mpo^-/- mice; experiment: Epicardial mapping of Langendorff-perfused hearts; conditions: atria from AngII treated Mpo^-/- mice, in contrast to AngII challenged WT mice
Description: (§1) Angiotensin II and myeloperoxidase treatment of mice. We treated male C57BL/6J (WT) and MPOtmllus mice (Mpo^-/^-) on a C57BL/6 background, aged 12-15 weeks, via ALZET osmotic pumps with angiotensin II (AngII, 1.5 ng/g body weight/minute) or saline (vehicle) for 14 days prior to electrophysiological investigation (EPI). We treated another cohort of WT and Mpo^-/- mice via ALZET osmotic pumps with a connected jugular catheter with recombinant MPO (5.0, 12.5 and 50 pg/g body weight/minute, which we calculated to generate physiological plasma levels of MPO ranging between 100 and 1100 pM, respectively) or recombinant human serum albumin (HSA) for 7 days in combination with either AngII or saline prior to EPI. Animal experiments, conformed with the Guide for the Care and Use of Laboratory Animals published by the US National Institutes of Health and were approved by the review board of Hamburg and Bonn.
Epicardial mapping of Langendorff-perfused hearts. We determined spontaneous and stimulated myocardial conduction velocities and characteristics of Langendorff perfused hearts by epicardial activation mapping using a 128-electrodearray^21.

WT mice = experiment: MPO content in mouse plasma and atrial tissue (ELISA) after angiotensin II infusion; type: in vivo; conditions: 2 week subcutaneous infusion of AngII
Description: as §1
Assessment of MPO content in human and mouse plasma and atrial tissue. We determined MPO levels by ELISA (human: Prognostix, Cleveland, USA; mouse: hycult biotechnology, The Netherlands).

WT and Mpo^-/- mice [2] = experiment: Electrophysiological investigation (EPI), induction of AF by right atrial stimulation, surface ECG; type: in vivo
Description: as §1
Electrophysiological investigation (EPI). We examined mice electrophysiologically using a single catheter technique ^19,32. We analyzed standard ECG-parameters obtained by a 6-lead-surface-ECG. EPI included transvenous atrial and ventricular recording and stimulation^21. For induction of AF, we performed atrial and ventricular burst and programmed atrial stimulations. We defined atrial fibrillation as rapid and fragmented atrial electrograms with irregular AV-nodal conduction for >1 s. AF-episodes persisting >1 min were classified as sustained AF. Number, duration, and probability of inducible AF-episodes were analyzed.

WT and Mpo^-/- mice [3] = experiment: Radiotelemetric blood pressure measurements; type: in vivo; conditions: AngII, Mpo^-/- mice compared with WT mice
Description: as §1
Radiotelemetric blood pressure measurements. We performed blood pressure measurements as previously^36. In brief, we inserted the tip of the telemetry device (TA11 PA-C10; Data Sciences International, St. Paul, USA) into the carotid lumen. After 10 days, data acquisition started for 1 minute every 5 minutes for 3 days. […] We recorded blood pressure and heart rate for the following week in MPO treated mice and two weeks in AngII treated animals, respectively.

Substance: angiotensin II (DRVYIHPF; Angiotensin-2; UniProt P01019 25-32, looked up) [AngII]
- conduction velocity [1]: no retardation in conduction velocity
- myocardial deposition of MPO (WT mice): elevated
- circulating MPO plasma levels (WT mice; 1.5 ng/g body weight/minute): substantially increased
- inducibility of AF (WT and Mpo^-/- mice [2]; Mpo^-/- mice, AngII for 14 days): did not affect the inducibility of AF
- susceptibility for AF (number and duration of AF-episodes, probability of AF induction) (WT and Mpo^-/- mice [2]; WT mice, AngII for 14 days, right atrial electrophysiological stimulation): higher susceptibility for AF
- P wave duration (WT and Mpo^-/- mice [2]; WT mice, AngII treatment, in vivo surface ECG, p<0.001): significant prolongation
- blood pressure elevating effect (WT and Mpo^-/- mice [3]): blunted
